Format in all cases: biochemical
One test addresses T1, CHK1 (Homo sapiens, UniProt O14757).
T1 sequence (O14757 1-476): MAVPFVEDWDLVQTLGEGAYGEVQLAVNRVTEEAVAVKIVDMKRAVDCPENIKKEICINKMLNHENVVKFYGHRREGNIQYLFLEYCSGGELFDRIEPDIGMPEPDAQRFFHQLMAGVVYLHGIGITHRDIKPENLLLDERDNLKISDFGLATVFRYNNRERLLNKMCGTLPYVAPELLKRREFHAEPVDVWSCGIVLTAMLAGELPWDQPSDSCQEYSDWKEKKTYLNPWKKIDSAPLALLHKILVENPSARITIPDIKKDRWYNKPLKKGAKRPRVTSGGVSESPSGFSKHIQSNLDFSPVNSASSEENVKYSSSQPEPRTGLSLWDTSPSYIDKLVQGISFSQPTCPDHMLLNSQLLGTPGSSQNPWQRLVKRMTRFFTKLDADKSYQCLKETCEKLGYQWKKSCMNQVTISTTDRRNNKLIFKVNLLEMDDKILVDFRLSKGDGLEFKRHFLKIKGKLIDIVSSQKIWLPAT
Put plainly: Kinase screen: CHK1 assay. The method, then: (§1) Generally, the same procedure was used for all assays. Since the total assay volume was 25.5 microliters, 0.5 microliters of inhibitors at 51× assay concentration were added to the plates before any other addition.
(§2) The basic procedure was to add 0.5 microliters inhibitor/control in DMSO to plate. Fifteen microliters of enzyme/substrate/buffer mix were added and incubated for 5 min. Ten microliters MgATP at the relevant concentration were added and incubated for 30 min. The assay was stopped by adding 5 microliters of 3% orthophosphoric acid. The assay was transferred to a p81 filter plate and read in a scintillation counter of 30 sec/well. Note that this assay procedure was not followed for MKK1, which instead involved a two-step assay, and PKC alpha, which required the addition of lipid vesicles.
CHK1 assay: CHK1 (5-20 mU diluted in 20 mM MOPS pH 7.5, 1 mM EDTA, 0.1% b-mercaptoethanol, 0.01% Brij-35, 5% glycerol, 1 mg/ml BSA) was assayed against CHKtide substrate peptide ([…]) (SEQ ID NO: 12) in a final volume of 25.5 μl containing 8 mM MOPS pH 7.0, 0.2 mM EDTA, 200 μM CHKtide, 10 mM magnesium acetate and 0.02 mM [33P-g-ATP] (50-1000 cpm/pmole) and incubated for 30 min at room temperature Assays were stopped by addition of 5 μl of 0.5 M (3%) orthophosphoric acid and then harvested onto P81 Unifilter plates with a wash buffer of 50 mM orthophosphoric acid.

The target of a further test is EFK2 (Homo sapiens, UniProt O00418). Put plainly: Kinase screen: EF2K assay. The method, then:
as §1, §2
EF2K assay: EF2K (5-20 mU diluted in 50 mM Hepes pH 6.6, 0.1% b-mercaptoethanol, 1 mg/ml BSA) was assayed against a substrate peptide ([…]) (SEQ ID NO: 27) in a final volume of 25.5 μl containing 50 mM Hepes pH 6.6, 0.2 mM CaCl2, 0.3 μM Calmodulin, 0.05% b-mercaptoethanol, 300 μM substrate peptide, 10 mM magnesium acetate and 0.005 mM [33P-g-ATP] (50-1000 cpm/pmole) and incubated for 30 min at room temperature. Assays were stopped by addition of 5 μl of 0.5 M (3%) orthophosphoric acid and then harvested onto P81 Unifilter plates with a wash buffer of 50 mM orthophosphoric acid.

Another test deals with T2, DYRK3 (Homo sapiens, UniProt O43781).
T2 sequence (O43781 1-588): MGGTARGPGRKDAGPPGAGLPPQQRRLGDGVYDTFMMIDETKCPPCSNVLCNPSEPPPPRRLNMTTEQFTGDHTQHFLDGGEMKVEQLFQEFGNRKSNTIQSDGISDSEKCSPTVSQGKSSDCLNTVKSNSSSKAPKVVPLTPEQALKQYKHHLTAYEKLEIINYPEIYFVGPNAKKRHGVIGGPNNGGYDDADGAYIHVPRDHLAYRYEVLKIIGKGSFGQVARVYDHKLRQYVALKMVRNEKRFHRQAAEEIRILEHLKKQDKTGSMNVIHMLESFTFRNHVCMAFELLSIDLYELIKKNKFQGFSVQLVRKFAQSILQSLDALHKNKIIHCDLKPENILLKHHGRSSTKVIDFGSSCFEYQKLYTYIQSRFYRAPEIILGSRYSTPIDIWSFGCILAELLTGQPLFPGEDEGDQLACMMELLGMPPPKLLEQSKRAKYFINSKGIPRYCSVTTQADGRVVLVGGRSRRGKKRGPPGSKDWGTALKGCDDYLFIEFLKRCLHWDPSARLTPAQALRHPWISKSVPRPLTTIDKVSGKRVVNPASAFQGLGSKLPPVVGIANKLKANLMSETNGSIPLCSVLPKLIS
Put plainly: Kinase screen: DYRK3 assay. The method, then:
as §1, §2
DYRK3 assay: DYRK3 (5-20 mU of diluted in 50 mM Tris pH7.5, 0.1 mM EGTA) was assayed against Woodtide ([…]) (SEQ ID NO: 29) in a final volume of 25.5 μl containing 50 mM Tris pH 7.5, 0.1 mM EGTA, 350 μM substrate peptide, 10 mM Magnesium acetate and 0.005 mM [33P-g-ATP] (50-1000 cpm/pmole) and incubated for 30 min at room temperature. Assays were stopped by addition of 5 μl of 0.5 M (3%) orthophosphoric acid and then harvested onto P81 Unifilter plates with a wash buffer of 50 mM orthophosphoric acid.

Another test deals with HIPK2 (Homo sapiens, UniProt Q9H2X6). Put plainly: Kinase screen: HIPK2 assay. The method, then: as §1, §2
HIPK2 assay: 5-20 mU of HIPK2 (diluted in 50 mM Tris (pH 7.5), 0.1 mM EGTA, 1 mg/ml BSA, 0.1%, b-Mercaptoethanol) was assayed against MBP in a final volume of 25.5 μl containing 50 mM Tris (pH 7.5), 0.1 mM EGTA, 0.1%, b-Mercaptoethanol, 0.33 mg/ml MBP, 10 mM magnesium acetate and 0.005 mM [33P-g-ATP] (500-1000 cpm/pmole) and incubated for 30 mins at room temperature. Assays were stopped by addition of 5 μl of 0.5M (3%) orthophosphoric acid. Assays were harvested onto P81 Unifilter plates using a wash buffer of 50 mM orthophosphoric acid.

[1] abbreviates: 10 micromolar compound, read-out: mean activity remaining (as a percentage of the original activity), CHK 1.
[2] abbreviates: 10 micromolar compound, read-out: mean activity remaining (as a percentage of the original activity), EFK2.
[3] abbreviates: 10 micromolar compound, read-out: mean activity remaining (as a percentage of the original activity), DYRK 3.
The mark [4] stands for this setting: 10 micromolar compound, read-out: mean activity remaining (as a percentage of the original activity), HIPK2.

Read-outs that look alike come from different tables or passages of the source.

HIPK2, sequence (Q9H2X6 whole entry, species assumed): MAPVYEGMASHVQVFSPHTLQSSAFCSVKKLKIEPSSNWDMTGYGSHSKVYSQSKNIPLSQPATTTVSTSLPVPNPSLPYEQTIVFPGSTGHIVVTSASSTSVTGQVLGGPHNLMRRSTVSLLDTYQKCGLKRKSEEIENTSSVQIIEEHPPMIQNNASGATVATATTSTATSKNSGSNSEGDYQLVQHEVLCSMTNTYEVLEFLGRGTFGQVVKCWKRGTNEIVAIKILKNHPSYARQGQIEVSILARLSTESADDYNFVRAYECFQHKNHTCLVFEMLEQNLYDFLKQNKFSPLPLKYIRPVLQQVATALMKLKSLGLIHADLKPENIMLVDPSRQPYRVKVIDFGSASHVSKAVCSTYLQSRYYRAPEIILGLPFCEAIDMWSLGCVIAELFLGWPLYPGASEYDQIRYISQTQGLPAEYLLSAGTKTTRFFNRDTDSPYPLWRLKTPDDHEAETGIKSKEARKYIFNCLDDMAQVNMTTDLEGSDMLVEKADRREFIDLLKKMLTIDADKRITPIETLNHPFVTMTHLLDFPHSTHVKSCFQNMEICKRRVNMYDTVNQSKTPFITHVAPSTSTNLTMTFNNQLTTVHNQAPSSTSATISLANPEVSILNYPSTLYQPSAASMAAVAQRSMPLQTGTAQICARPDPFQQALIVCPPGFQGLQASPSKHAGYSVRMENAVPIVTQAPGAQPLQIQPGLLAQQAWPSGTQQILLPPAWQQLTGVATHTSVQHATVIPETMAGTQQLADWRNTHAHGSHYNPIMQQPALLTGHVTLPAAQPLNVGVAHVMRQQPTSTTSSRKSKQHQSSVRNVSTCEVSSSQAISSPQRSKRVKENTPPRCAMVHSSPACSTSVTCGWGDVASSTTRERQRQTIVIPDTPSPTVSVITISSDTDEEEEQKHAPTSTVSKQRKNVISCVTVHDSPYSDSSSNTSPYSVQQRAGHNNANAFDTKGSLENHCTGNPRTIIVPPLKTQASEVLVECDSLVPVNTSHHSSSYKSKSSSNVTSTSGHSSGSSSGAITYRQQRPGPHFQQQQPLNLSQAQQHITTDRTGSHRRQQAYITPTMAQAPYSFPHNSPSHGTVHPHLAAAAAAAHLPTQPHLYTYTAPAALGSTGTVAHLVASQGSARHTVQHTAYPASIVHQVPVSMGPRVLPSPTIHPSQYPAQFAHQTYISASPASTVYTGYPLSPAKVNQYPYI

What is called remaining activity is the signal under treatment as a percentage of the control signal. On to `CC[C@H](CO)Nc1cc(NCc2ccccc2)n2ncc(C(C)C)c2n1` [ICEC0067], for which the remaining activity at 10 µM was 100% on CHK1 (setting [1]), 95% on EFK2 (setting [2]), 90% on DYRK3 (setting [3]) and 70% on HIPK2 (setting [4]).
Turning to `C=C[C@H](CO)Nc1cc(NCc2ccccc2)n2ncc(C(C)C)c2n1` [ICEC0065], the remaining activity at 10 µM on CHK1 (setting [1]) stood at 87%; at EFK2 (setting [2]), 97%; on DYRK3 (setting [3]), 86%; at HIPK2 (setting [4]) it was 70%.
For `CC(C)c1cnn2c(NCc3ccccc3)cc(N[C@@H](CO)[C@H](O)CO)nc12` [ICEC0318, (3S)-3-(7-(Benzylamino)-3-isopropylpyrazolo[1,5-a]pyrimidin-5-ylamino)butane-1,2,4-triol], in that order: 98%, 92%, 88% and 73%.
For the compound `CC(C)c1cnn2c(NCc3ccccc3F)cc(NCCCCCN)nc12` [ICEC-0232], the “mean activity remaining (as a percentage of the original activity), CHK 1” value at CHK1 (10 micromolar compound) amounted to 87%. For the same compound, the “mean activity remaining (as a percentage of the original activity), EFK2” value on EFK2 (10 micromolar compound) came out at 98%. Moreover, at DYRK3 (10 micromolar compound), the “mean activity remaining (as a percentage of the original activity), DYRK 3” value is 60%. For the same compound, the “mean activity remaining (as a percentage of the original activity), HIPK2” value on HIPK2 (10 micromolar compound) was 49%.
Take `CC(C)c1cnn2c(NCc3ccccc3)cc(NCCCCCCCN)nc12` [BS-181]: the remaining activity at 10 µM on CHK1 (CHK1, 10 μM, read-out: Mean Remaining Enzyme Activity (%)) was 80%; on EFK2 (EFK2, 10 μM, read-out: Mean Remaining Enzyme Activity (%)), 119%; on DYRK3 (DYRK3, 10 μM, read-out: Mean Remaining Enzyme Activity (%)), 87%; at HIPK2 (HIPK2, 10 μM, read-out: Mean Remaining Enzyme Activity (%)), 88%.

The values are drawn from US8067424B2, “Selective inhibitors for cyclin-dependent kinases” (Emory University, priority 2007, dated 2011).
